Measured values reported in publication PMC12656565, “In Vitro and Ultrastructural Evaluation of the Cytotoxic and Antileishmanial Activities of Thiosemicarbazone Compounds Against Promastigotes and Axenic Amastigotes of Leishmania infantum” (Tropical Medicine and Infectious Disease, 2025).
“Also recorded” adds a separate entry of the source.

Assays:
[1] = test system: L. infantum promastigotes; assay: Apoptosis/necrosis by annexin V-FITC and propidium iodide flow cytometry; format: cell-based, Leishmania infantum; settings: 1× and 2× IC50, 72 h
Method: To evaluate cell death types induced by the compounds, promastigote forms of Leishmania infantum (2 × 10^6 cells/mL) were treated with concentrations corresponding to 1× and 2× IC50 of compounds LT-73 and LT-75 for 72 h. After incubation, cells were centrifuged at 3000× g for 5 min, washed with PBS, and subsequently with 1× Buffer Solution provided by the Annexin V-FITC apoptosis detection kit (BD Biosciences, San Jose, CA, USA). Cells were then resuspended in 100 µL Buffer Solution and stained with 5 µL Annexin V conjugated to FITC, incubated for 15 min at room temperature protected from light. After incubation, cells were washed again with 1× Buffer Solution and resuspended in 200 µL of the same buffer. Subsequently, 5 µL propidium iodide (PI) were added to each sample for identification of cells with compromised membrane integrity. Samples were transferred to flow cytometry tubes and analyzed on the FACSCalibur flow cytometer (Becton Dickinson, San José, CA, USA) equipped with CellQuest PRO Software (BD Biosciences; version 5.1), within 4 h after staining. Annexin V-FITC was excited at 488 nm, with fluorescence detected at 530/30 nm; propidium iodide (PI) was excited at 488 nm and detected at 585/42 nm. Single-stained controls for Annexin V-FITC and PI were included in order to apply spillover correction (compensation) between channels.

[2] = test system: J774 macrophages and Vero cells; set-up: method as in ref [21] Aliança et al.; settings: ref [21] Aliança et al.; cited from earlier work
[3] = test system: L. infantum promastigote cells; assay: Mitochondrial membrane potential (Rhodamine 123, flow cytometry); format: cell-based, Leishmania infantum; settings: for Variability Index (VI), range: range over the tested concentrations (1× and 2× IC50; H2O2 control)
Method: To evaluate the effects of compounds on the mitochondrial membrane potential (ΔΨm) of Leishmania infantum, the cationic probe Rhodamine 123 (Rod 123) was used through quantitative flow cytometry analysis. […] After incubation, cells were centrifuged at 3000× g for 5 min, and supernatants discarded. […] Hydrogen peroxide (H2O2) at 1 μM was used as positive control, previously described in the literature as an inducer of mitochondrial potential loss. Cells were analyzed by flow cytometry on the FACSCalibur equipment (Becton & Dickinson, San José, CA, USA), with excitation at 488 nm and detection at 505/534 nm. Fifty thousand events per sample were acquired. Data were expressed as percentage of cells stained with Rhodamine 123 for each tested condition. Fluorescence variation was quantified by Variation Index (VI), calculated by the equation: VI = (MT − MC)/MC, where MT corresponds to the median fluorescence of treated cells and MC to the median of control cells (untreated).

peritoneal macrophages = test system: peritoneal macrophages; set-up: method as in ref [23] Queiroz et al.; settings: ref [23] Queiroz et al.; cited from earlier work
J774.A1 macrophages = assay: Cytokine dosage (CBA) in supernatants of uninfected macrophages; format: cell-based, Mouse; settings: 1× and 2× CC50, 72 h
Method: J774.A1 macrophage lineage cells were cultured in 96-well polystyrene plates containing DMEM medium supplemented with 10% FBS. Cells were incubated with the following concentrations: 1× CC50 and 2× CC50 of compounds LT-73 and LT-75 and amphotericin B, as well as 1% DMSO diluent solution as control, for 72 h. The cells used in these assays were not infected with Leishmania infantum, allowing the evaluation of cytokine modulation and cytotoxicity in uninfected macrophages. After cultivation, 100 µL of culture supernatants were collected and immediately stored at −20 °C for later use in CBA assays (Cytometric Bead Array-BD Biosciences, BD Biosciences, San Jose, CA, USA). This assay utilized a mixture of […] polystyrene beads with different fluorescence intensities, coated with specific antibodies for quantification of cytokines IFN-γ, TNF, IL-10, IL-6, IL-4, IL-2, and IL-17a present in sample supernatants. Cytokine levels were quantified using the BD Cytometric Bead Array (CBA) Mouse Th1/Th2/Th17 kit (Cat. No. 560485, BD Biosciences, San Jose, CA, USA) and analyzed on a BD FACSCalibur™ Flow Cytometer with BD CellQuest PRO Software (BD Biosciences; version 5.1 by the facility). Results are expressed in pg/mL based on standard curves provided by the manufacturer.

| Structure (SMILES) | Cell death profile by annexin V/PI staining (in words) [1] | cytotoxicity [2] [µM] | Mean (Rho 123 fluorescence) ([3]; 1× IC50, 72 h) | Variation (Variation Index, VI = (MT − MC)/MC) ([3]; 1× IC50, 72 h) | Mean (Rho 123 fluorescence) ([3]; 2× IC50, 72 h) | Variation (Variation Index, VI = (MT − MC)/MC) ([3]; 2× IC50, 72 h) | Variability Index (VI), range [3] | cytotoxicity (peritoneal macrophages) [µM] | IFN-γ production (J774.A1 macrophages) | IL-6 secretion (J774.A1 macrophages) | Mitochondrial membrane depolarization (in words) ([3]; 1× and 2× IC50, 72 h) |
| --- | --- | --- | --- | --- | --- | --- | --- | --- | --- | --- | --- |
| C[C@@H]1[C@H](O)[C@@H](C)/C=C/C=C/C=C/C=C/C=C/C=C/C=C/[C@H](O[C@@H]2O[C@H](C)[C@@H](O)[C@H](N)[C@@H]2O)C[C@@H]2O[C@](O)(C[C@@H](O)C[C@@H](O)[C@H](O)CC[C@@H](O)C[C@@H](O)CC(=O)O[C@H]1C)C[C@H](O)[C@H]2C(=O)O [Amphotericin B, reference compound] | induced apoptosis as the main form of cell death | 74.7 | 213 ± 1 | −0.70 ± 0.01 | 193 ± 3 | −0.73 ± 0.02 | −0.018 to −0.73 | 74.86 |  |  |  |
| S=C(N/N=C/c1c[nH]c2ncccc12)Nc1ccccc1 [LT-73] | predominantly induced AV+/PI− staining; also recorded: predominantly induced apoptosis; also recorded: able to induce phosphatidylserine externalization |  | 658 ± 9 | −0.07 ± 0.05 | 697 ± 7 | −0.02 ± 0.03 | −0.02 to −0.07 |  | no cytokine production was observed | IL-6 production was observed only at the CC50 concentration | depolarization of the mitochondrial membrane; also recorded: induced a alteration in Δψm |
| N#Cc1ccc2[nH]cc(/C=N/NC(=S)Nc3ccc(Cl)cc3)c2c1 [LT-75] | predominance of AV+/PI− staining; also recorded: predominantly induced apoptosis; also recorded: able to induce phosphatidylserine externalization |  | 1425 ± 106 | 1 ± 0.23 | 1000 ± 21 | 0.41 ± 0.05 |  |  | induced the production of the cytokine IFN-γ | discrete elevation detected at 1× LT-75 |  |
